Legend:
Format in all cases: cell-based, human
DU-145 = assay: SRB colorimetric assay of cell growth and viability, DU-145; settings: DU-145; 48 hours exposure
LoVo = assay: SRB colorimetric assay of cell growth and viability, LoVo; settings: LOVO, 48 hours exposure; for CC50: read-out: LC50 LOVO
LoVo-Dox = assay: SRB colorimetric assay of cell growth and viability, LoVo-Dox; settings: LOVO-DOX, 48 hours exposure; for CC50: read-out: LC50 LOVO-DOX
Procedure, shortened: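 Sulforhodamine B assay run after 48 h of continuous drug contact; cells seeded 5×10^3/well in RPMI 1640 10% FBS, attached 18 h. Triplicate OD490 values give cytostatic (TGI), cytotoxic (LC) and GI parameters.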

IGROV-1 = assay: SRB colorimetric assay of cell growth and viability, IGROV-1; settings: IGROV; 48 hours exposure
SK-MEL-28 = assay: SRB colorimetric assay of cell growth and viability, SK-MEL-28; settings: MEL-28, 48 hours exposure; for CC50: read-out: LC50 MEL-28
HeLa = assay: SRB colorimetric assay of cell growth and viability, HeLa; settings: HELA, 48 hours exposure; for CC50: read-out: LC50 HELA
IGROV-ET = assay: SRB colorimetric assay of cell growth and viability, IGROV-ET; settings: IGROV-ET, 48 hours exposure; for CC50: read-out: LC50 IGROV-ET
A-549 = assay: SRB colorimetric assay of cell growth and viability, A-549; settings: A-549, 48 hours exposure; for GI50: read-out: GI50 A-549; for CC50: read-out: LC50 A-549
HT-29 = assay: SRB colorimetric assay of cell growth and viability, HT-29; settings: HT-29, 48 hours exposure; for GI50: read-out: GI50 HT-29; for CC50: read-out: LC50 HT-29
SK-BR-3 = assay: SRB colorimetric assay of cell growth and viability, SK-BR-3; settings: SK-BR-3; 48 hours exposure
Excerpt: The finality of this assay is to interrupt the growth of a “in vitro” tumor cell culture by means a continued exhibition of the cells to the sample to be testing.
This form of the assay employs 96 well cell culture microplates of 9 mm diameter (Faircloth, 1988; Mosmann, 1983). Most of the cell lines are obtained from American Type Culture Collection (ATCC) derived from different human cancer types.
Cells are maintained in RPMI 1640 10% FBS, supplemented with 0.1 g/l penicillin and 0.1 g/l streptomycin sulfate and then incubated at 37° C., 5% CO2 and 98% humidity. For the experiments, cells were harvested from subconfluent cultures using trypsin and resuspended in fresh medium before plating.
Cells are seeded in 96 well microtiter plates, at 5×10^3 cells per well in aliquots of 195 μL medium, and they are allowed to attach to the plate surface by growing in drug free medium for 18 hours. Afterward, samples are added in aliquots of 5 μL in a ranging from 10 to 10^−8 μg/mL, dissolved in DMSO:EtOH:PBS (0.5:0.5:99). After 48 hours exposure, the antitumor effect are measured by the SRB methodology: cells are fixed by adding 50 μL of cold 50% (wt/vol) trichloroacetic acid (TCA) and incubating for 60 minutes at 4° C. Plates are washed with deionized water and dried. One hundred μL of SRB solution (0.4% wt/vol in 1% acetic acid) is added to each microtiter well and incubated for 10 minutes at room temperature. Unbound SRB is removed by washing with 1% acetic acid. Plates are air dried and bound stain is solubilized with Tris buffer. Optical densities are read on a automated spectrophotometric plate reader at a single wavelength of 490 nm.
The values for mean+/− SD of data from triplicate wells are calculated. Some parameters for cellular responses can be calculated: GI=growth inhibition, TGI=total growth inhibition (cytostatic effect) and LC=cell killing (cytotoxic effect).

PANC-1 = assay: SRB colorimetric assay of cell growth and viability, PANC-1; settings: PANC-1, 48 hours exposure; for CC50: read-out: LC50 PANC-1
K-562 = assay: SRB colorimetric assay of cell growth and viability, K-562; settings: K-562, 48 hours exposure; for CC50: read-out: LC50 K-562
HeLa-APL = assay: SRB colorimetric assay of cell growth and viability, HeLa-APL; settings: HELA-APL, 48 hours exposure; for CC50: read-out: LC50 HELA-APL

Row | SMILES | GI50 (DU-145) | LC50 (concentration causing 50% net cell kill) (DU-145) | TGI DU-145 (DU-145) | GI50 (LoVo) | TGI LOVO (LoVo) | CC50 (LoVo) | GI50 (LoVo-Dox) | TGI LOVO-DOX (LoVo-Dox) | CC50 (LoVo-Dox) | GI50 (IGROV-1) | LC50 (concentration causing 50% net cell killing) (IGROV-1) | TGI IGROV (IGROV-1) | GI50 (SK-MEL-28) | TGI MEL-28 (SK-MEL-28) | CC50 (SK-MEL-28) | GI50 (HeLa) | TGI HELA (HeLa) | CC50 (HeLa) | GI50 (IGROV-ET) | TGI IGROV-ET (IGROV-ET) | also measured
1 | C/C=C1\NC(=O)[C@H](Cc2ccc(Cl)cc2)NC(=O)[C@@H](C(C)C)NC(=O)[C@@H]([C@@H](C)CC)NC(=O)[C@H](NC(=O)[C@H](NC(=O)[C@H](CCCN)NC(=O)[C@H]2CCCN2C(=O)[C@H](NC(=O)[C@@H](NC(=O)[C@@H](NC(=O)[C@H](NC(=O)CCCC(C)C)C(C)C)[C@@H](C)O)C(C)C)C(C)C)[C@@H](C)CC)[C@@H](C)OC(=O)[C@H](C(C)C)NC1=O [Compound 83, [Phe(4-Cl)^3]-KF] | 83 nM | 461 nM | 2.07E−07 Molar | 30.3 nM | 6.27E−08 Molar | 165 nM | 38.2 nM | 7.81E−08 Molar | 1840 nM | 37.1 nM | 143 nM | 7.69E−08 Molar | 206 nM | 3.40E−07 Molar | 561 nM | 51.9 nM | 2.00E−07 Molar | 475 nM | 65.2 nM | 1.21E−07 Molar | CC50 (IGROV-ET): 587 nM; TGI A-549 (A-549): 3.62E−07 Molar; GI50 (A-549): 221 nM; CC50 (A-549): 593 nM; TGI HT-29 (HT-29): 8.24E−08 Molar; GI50 (HT-29): 36.8 nM; CC50 (HT-29): 172 nM; GI50 (SK-BR-3): 34.2 nM; LC50 (SK-BR-3): 155 nM; TGI SK-BR-3 (SK-BR-3): 5.29E−08 Molar; GI50 (PANC-1): 658 nM; TGI PANC-1 (PANC-1): 1.07E−06 Molar; CC50 (PANC-1): 1750 nM; GI50 (K-562): 333 nM; TGI K-562 (K-562): 5.08E−07 Molar; CC50 (K-562): 1130 nM; GI50 (HeLa-APL): 96.5 nM; TGI HELA-APL (HeLa-APL): 2.28E−07 Molar; CC50 (HeLa-APL): 470 nM
2 | C/C=C1\NC(=O)[C@H](Cc2ccc(F)c(F)c2)NC(=O)[C@@H](C(C)C)NC(=O)[C@@H]([C@@H](C)CC)NC(=O)[C@H](NC(=O)[C@H](NC(=O)[C@H](CCCN)NC(=O)[C@H]2CCCN2C(=O)[C@H](NC(=O)[C@@H](NC(=O)[C@@H](NC(=O)[C@H](NC(=O)CCCC(C)C)C(C)C)[C@@H](C)O)C(C)C)C(C)C)[C@@H](C)CC)[C@@H](C)OC(=O)[C@H](C(C)C)NC1=O [Compound 84, [Phe(3,4-F2)^3]-KF] | 111 nM | 463 nM | 2.54E−07 Molar | 31.7 nM | 7.25E−08 Molar | 150 nM | 32.3 nM | 6.88E−08 Molar | 176 nM | 47.2 nM | 155 nM | 9.40E−08 Molar | 224 nM | 3.55E−07 Molar | 561 nM | 70.6 nM | 2.17E−07 Molar | 451 nM | 65.1 nM | 1.16E−07 Molar | CC50 (IGROV-ET): 343 nM; TGI A-549 (A-549): 3.96E−07 Molar; GI50 (A-549): 224 nM; CC50 (A-549): 848 nM; TGI HT-29 (HT-29): 9.77E−08 Molar; GI50 (HT-29): 62.7 nM; CC50 (HT-29): 152 nM; GI50 (SK-BR-3): 27.3 nM; LC50 (SK-BR-3): 136 nM; TGI SK-BR-3 (SK-BR-3): 5.34E−08 Molar; GI50 (PANC-1): 725 nM; TGI PANC-1 (PANC-1): 1.17E−06 Molar; CC50 (PANC-1): 1840 nM; GI50 (K-562): 560 nM; TGI K-562 (K-562): 9.28E−07 Molar; CC50 (K-562): 1420 nM; GI50 (HeLa-APL): 117 nM; TGI HELA-APL (HeLa-APL): 2.49E−07 Molar; CC50 (HeLa-APL): 467 nM
